Results published in patent US20170202802A1, “COMPOSITIONS, KITS AND METHODS FOR NUTRITION SUPPLEMENTATION” (Exeltis USA, Inc., priority 2016, published 2017).

Assay: Double-blind, placebo controlled six-month study of nutritional status in pregnant and lactating women (Example 6)
Assay type: in vivo, human
Conditions: co-administration of docusate sodium with supplements
Procedure: A study is undertaken to evaluate the effectiveness of the compositions of the present invention in the treatment of patients. The objective of the study is to determine whether oral intake of the compositions results in an improvement of the nutritional status of patients with regard to the specific vitamins and minerals contained in the administered compositions.
A double-blind, placebo controlled study is conducted over a six-month period. A total of 120 subjects (60 pregnant women entering the second trimester of pregnancy and 60 lactating women), aged 20-35 years, are chosen for the study. An initial assessment of the nutritional status of each woman is conducted. Vitamin A and vitamin B6 are measured using high performance liquid chromatography. […] Vitamin B2 levels are determined by assessment of erythrocyte glutathione reductase activity. Vitamin B3 levels are assessed by measuring urinary excretion of N′-methylnicotinamide and its pyridone. Vitamin B9 is measured by radioimmunoassay (RIA), specifically. […] Vitamin B12 is measured by RIA using human intrinsic factor as a binder and also by measuring serum levels of vitamin B12. Vitamin C levels are measured by spectrophotometric and colorimetric methods and also by measuring serum levels of Vitamin C. Vitamin D is measured using an extraction double-antibody RIA (Dia Sorin, Inc., Stillwater, Minn.). […] Iodine levels are measured by HPLC. […]

CCCCC(CC)COC(=O)CC(C(=O)OCC(CC)CCCC)S(=O)(=O)[O-].[Na+] (stereo not shown) [docusate sodium]
constipation that can result from iron supplementation (frequency of normal bowel movements before and after receiving supplements): mitigates constipation
